Experimental data taken from article PMC3624020 (Nature communications, 2011).

Legend:
[1] = system: PGRMC1 in A549 lung cancer cells; details: ref [33], [37]; cited from earlier work
[2] = system: sigma-2 receptors in hepatic membrane homogenates; test: blocking of WC-21 photoaffinity labeling of the ~24 kD protein band; assay type: binding; details: rat liver membrane homogenates, photo cross-linked with WC-21, western blot

SMILES | upregulation of PGRMC1 [1] | blocking of WC-21 labeling of the ~24 kD protein band [2]
Cc1ccc2c(c1)[C@H]1CN(C)CC[C@H]1N2C(=O)CSc1nnnn1-c1ccc(Cl)cc1 [AG-205] | induced an upregulation | 
Cc1ccccc1N=C(N)Nc1ccccc1C [DTG] |  | blocked
COc1cc2c(cc1OC)CN(CCCCNC(=O)c1cc(C)ccc1OC)CC2 [RHM-1, N-[4-(3,4-dihydro-6,7-dimethoxyisoquinolin-2(1H)-yl)butyl]-2-methoxy-5-methylbenzamide] |  | blocked
